Laboratory results taken from paper PMC2859942 (PLoS ONE, 2010).

Legend:
[1] = system: recombinant viruses (patient IN amplicons in pHXB2-ΔIN backbone) in MT4-LTR-eGFP cells; experiment: Drug susceptibility testing of replication-competent recombinant viruses (phenotypic sensitivity, eGFP readout); assay type: cell-based, HIV-1; conditions: for EVG FC (elvitegravir sensitivity fold-change in IC50): vs IIIB HIV-1 wild-type reference
[2] = system: IN WT, IN Y143C and IN Y143R; assay type: biochemical, HIV-1; conditions: strand transfer observed in the 3′end processing assay, uncleaved substrate, three enzymes
[3] = samples with the Y143C/H/R mutations

Cc1nnc(C(=O)NC(C)(C)c2nc(C(=O)NCc3ccc(F)cc3)c(O)c(=O)n2C)o1 [RAL, raltegravir]
median RAL FC [1, 3]: 24.83
range of RAL FC [1, 3]: 5.87–51.95
concentration of drug for complete inhibition of ST [2]: 0.4 µM

COc1cc2c(cc1Cc1cccc(Cl)c1F)c(=O)c(C(=O)O)cn2[C@H](CO)C(C)C [EVG, elvitegravir]
EVG FC (elvitegravir sensitivity fold-change in IC50) ([1]; patient 1, D0, integrase mutations V72I I203M): 0.89
EVG FC (elvitegravir sensitivity fold-change in IC50) ([1]; patient 1, M3 on RAL, V72I L74L/M T97A/T Y143C I203M): 1.56
EVG FC (elvitegravir sensitivity fold-change in IC50) ([1]; patient 1, M9 (RAL removed after month 6), V72I I203M): 0.83
EVG FC (elvitegravir sensitivity fold-change in IC50) ([1]; patient 1, M12 (RAL removed after month 6), V72I I203M): 1.43
EVG FC (elvitegravir sensitivity fold-change in IC50) ([1]; patient 2, D0, V151I/V): 0.94
EVG FC (elvitegravir sensitivity fold-change in IC50) ([1]; patient 2, M3 on RAL, N155N/H): 6.05
EVG FC (elvitegravir sensitivity fold-change in IC50) ([1]; patient 2, M6 on RAL, T97A/T G163G/R Y143Y/C/H/R): 6.23
EVG FC (elvitegravir sensitivity fold-change in IC50) ([1]; patient 2, M9 on RAL, T97A/T G163G/R Y143Y/C/H/R): 2.68
EVG FC (elvitegravir sensitivity fold-change in IC50) ([1]; patient 3, D0, V72I): 0.60
EVG FC (elvitegravir sensitivity fold-change in IC50) ([1]; patient 3, M6 on RAL, V72I T97A/T Y143C/H/R/Y): 3
EVG FC (elvitegravir sensitivity fold-change in IC50) ([1]; patient 3, M12 on RAL, V72I T97A/T Y143C/H/R/Y): 9.57
median EVG FC [1, 3]: 3
range of EVG FC [1, 3]: 1.56–9.57
